Like-named read-outs stand apart in the source and are kept apart here.
What was measured:
[1] = estimated, based on E7107; cited from earlier work
[2] = test system: HCT116 colorectal carcinoma cells; assay: MTS cell viability / cell growth inhibition assay; assay type: cell-based, human; conditions: for cell growth inhibitory activity compared to FD-895: HCT-116 cells; for GI50: Homo sapiens, HCT-116, 72 h
Protocol: With milligram quantities of 1a-1i at hand, we began our studies to evaluate the relative efficacy of each analogue using cell growth inhibition studies in HCT116 colorectal carcinoma cells. As reported in FIG. 3, GI50 values were collected for each analog after a 72 h treatment using the MTS cell viability assay (Table 12). Under these conditions, the natural FD-895 (1), 3S-FD-895 (1a) 17S-FD-895 (1d), 17-methoxy-FD-895 (1e) provided activities of <10 nM.
HCT-116 cells was cultured in McCoy's 5a (Life Technologies) supplemented with 10% fetal bovine serum (FBS), 2 mM L-glutamine, and 100 U mL^−1 of penicillin and 100 μg mL^−1 of streptomycin at 37° C. in an atmosphere of 5% CO2. Compounds were dissolved in DMSO (MilliporeSigma). Cells were treated with 1-1j in media with ≥0.5% DMSO for 4-72 h.
Studies were conducted in […] cell culture plates. HCT-116 plated at 5×10^3 cells/well were cultured for 24 h and then treated with analogs 1-1j for 4-72 h, then washed twice with 100 μL PBS. PBS (100 μL) was added to each well, followed by 20 μL of CellTiter Aqueous One Solution (Promega). After 2 h at 37° C., absorbance readings were taken at 490 nm (test wavelength) and 690 nm (reference wavelength). GI50 values were calculated in Prism (GraphPad) using greater 3 replicates.
(§1) Cells were treated with 1 or 1a-1j in media (McCoy's 5a (Life Technologies) supplemented with 10% FBS, 2 mM L-glutamine, and 100 U mL^−1 of penicillin and 100 μg mL^−1 of streptomycin 0.5% DMSO) for 4 h or 24 h. Untreated cells were considered were used as negative control. Total RNA was isolated using mirVana miRNA isolation kit (Life Technologies). A 1 μg sample of RNA was subjected to DNAseI from a TURBO DNA free kit (Life Technologies). The cDNA was prepared by using SuperScript III reverse transcriptase kit (Life Technologies). The amount of unspliced RNA for different genes was determined using Power SYBR Green PCR master mix (Applied Biosystems) by qPCR using specific primers for each gene. qPCR using 2.5 μM of each primer was performed on 5 ng of the obtained cDNA. qPCR conditions were as follows: 95° C. for 10 min for one cycle, then 95° C. for 10 min for one cycle, then 95° C. for 30 s, 55° C. for 60 s, 72° C. for 60 s, for 40 cycles using the MXPro. Quantification cycle (Cq) values were identified for each sample, and then RNA levels were calculated using 2-ΔΔCT method. GAPDH was used as a control for normalization. At least three replicates were conducted for each compound. Namely, all genes explored in this study were evaluated from the same cell cultures. Here, individual cultures were used for each compound explored and at least three replicates were used for each compound. While experimental variation occurred between the different compound treatments, the levels of the different intron retention, exon skipping or RNA expression were collected from the same cellular material. Statistics were calculated using a standard one-way ANOVA; p values were represented so that * signifies p<0.0001. HCT116 were treated with analogs 1-1j ranging from 0.1-5000 nM for 72 hours, then cell viability was measured using the MTS assay. GI50 values and confidence intervals were calculated using GraphPad (Table 12).

PLK-1 = assay: qPCR splicing analysis, PLK-1 exon skipping / RNA expression; assay type: cell-based, human; conditions: HCT116, 4 h, 20 times GI50, qPCR
Protocol: (§2) HCT116 tumor cells were treated with each analogue at 20 times the G150 value (Table 12) for 4 hours and then cellular RNA was isolated and purified for qPCR. Primers were designed to evaluate intron retention or exon skipping, direct responses to splice modulator treatment. Genes evaluated included those involved in splicing regulation (SF3A1, SF3A3, SF3B1, SF3B2), apoptosis (MCL-1L), protein folding (DNAJB1), and cell cycle regulation (AURKA, PLK-1) relative to the unspliced control GAPDH. For alternative splicing regulator (SF2), primers were designed to evaluate gene expression, which changes in response splice modulator treatment for SF2 relative to the unspliced control GAPDH. (−) denotes untreated cells.
(§3) Next, we turned our efforts to explore the ability of these analogues to modulate splicing. […] We treated cells for 4 h so that we could evaluate early changes in splicing activity, and then cellular RNA was isolated and purified for analyses by qPCR (FIG. 14). Most importantly, none of the concentrations tested led to significant changes in cell viability, ensuring that changes in gene expression were not due to cell death.
(§4) For these studies, we evaluated the expression of genes involved in splicing regulation (SF3A1, SF3A3, SF3B1, SF3B2), apoptosis (MCL-1L), protein folding (DNAJB1), and cell cycle regulation (AURKA, PLK-1) relative to the unspliced control GAPDH. Primers were designed to evaluate intron retention or exon skipping, direct responses to splice modulator treatment. The master splicing regulator alternative splicing factor (SF2) was also evaluated, with the primers for this gene designed to evaluate overall gene expression, which changes in response to splice modulator treatment.
(§5) From this 4 h study (FIG. 14), a small set of analogs (1, 1b, 1g, 1d, 1e, 1i and 1j) were selected to evaluate if effects on splicing when presented for a longer 24 h period. […] Using identical procedures as that used for 4 h, HCT116 cells were treated with three concentrations (100 nM, 250 nM and 500 nM) of each analog for 24 h. Multiple concentrations were used as a means to check further validate the use of the GI50 concentration in our prior study (FIG. 14). As before, none of the concentrations tested led to significant changes in cell viability over the 24-hour time window, ensuring that changes in gene expression were not due to cell death.
Cells were treated with 1 or 1a-1j in media (McCoy's 5a (Life Technologies) supplemented with 10% FBS, 2 mM L-glutamine, and 100 U mL^−1 of penicillin and 100 μg mL^−1 of streptomycin 0.5% DMSO) for 4 h or 24 h. Untreated cells were considered were used as negative control. Total RNA was isolated using mirVana miRNA isolation kit (Life Technologies). A 1 μg sample of RNA was subjected to DNAseI from a TURBO DNA free kit (Life Technologies). […] The amount of unspliced RNA for different genes was determined using Power SYBR Green PCR master mix (Applied Biosystems) by qPCR using specific primers for each gene. qPCR using 2.5 μM of each primer was performed on 5 ng of the obtained cDNA. qPCR conditions were as follows: 95° C. for 10 min for one cycle, then 95° C. for 10 min for one cycle, then 95° C. for 30 s, 55° C. for 60 s, 72° C. for 60 s, for 40 cycles using the MXPro. Quantification cycle (Cq) values were identified for each sample, and then RNA levels were calculated using 2-ΔΔCT method. […] Namely, all genes explored in this study were evaluated from the same cell cultures. […]

SF2 = assay: qPCR gene expression of alternative splicing factor SF2; assay type: cell-based, human; conditions: HCT116, 4 h, 20 times GI50, qPCR
Protocol: as §2
as §2, with “analogues” for “each analogue”, “100 nM (light grey), 250 nM (grey), or 500 nM (black)” for “20 times the G150 value (Table 12)”, “24 h” for “4 hours”, “(MCL-1L), and” for “(MCL-1L),”, “(DNAJB1),” for “(DNAJB1), and cell cycle regulation (AURKA, PLK-1)”, “(—)” for “(−)”
as §3, §4
From this 4 h study (FIG. 14), a small set of analogs (1, 1b, 1g, 1d, 1e, 1i and 1j) were selected to evaluate if effects on splicing when presented for a longer 24 h period. […] Using identical procedures as that used for 4 h, HCT116 cells were treated with three concentrations (100 nM, 250 nM and 500 nM) of each analog for 24 h. […]

HCT116 tumor cells = assay: qPCR structure-splicing profile over the gene panel; assay type: cell-based, human; conditions: HCT116, 24 h, 100, 250, 500 nM, compared to 1
Protocol: as §2, with “analogues” for “each analogue”, “100 nM (light grey), 250 nM (grey), or 500 nM (black)” for “20 times the G150 value (Table 12)”, “24 h” for “4 hours”, “(MCL-1L), and” for “(MCL-1L),”, “(DNAJB1),” for “(DNAJB1), and cell cycle regulation (AURKA, PLK-1)”, “(—)” for “(−)”
as §4, §5, §1

AURKA = assay: qPCR splicing analysis, AURKA exon skipping / expression; assay type: cell-based, human; conditions: HCT116, 4 h, 20 times GI50, qPCR
Protocol: as §2
Next, we turned our efforts to explore the ability of these analogues to modulate splicing. […] We treated cells for 4 h so that we could evaluate early changes in splicing activity, and then cellular RNA was isolated and purified for analyses by qPCR (FIG. 14). […]
as §4, with “Primers were designed to evaluate intron retention or exon skipping, direct responses to splice modulator treatment.” left out, “treatment. […]” for “treatment.”
Cells were treated with 1 or 1a-1j in media (McCoy's 5a (Life Technologies) supplemented with 10% FBS, 2 mM L-glutamine, and 100 U mL^−1 of penicillin and 100 μg mL^−1 of streptomycin 0.5% DMSO) for 4 h or 24 h. […] The amount of unspliced RNA for different genes was determined using Power SYBR Green PCR master mix (Applied Biosystems) by qPCR using specific primers for each gene. qPCR using 2.5 μM of each primer was performed on 5 ng of the obtained cDNA. qPCR conditions were as follows: 95° C. for 10 min for one cycle, then 95° C. for 10 min for one cycle, then 95° C. for 30 s, 55° C. for 60 s, 72° C. for 60 s, for 40 cycles using the MXPro. […]

DNAJB1 = assay: qPCR splicing analysis, DNAJB1 intron retention; assay type: cell-based, human; conditions: HCT116, 4 h, 20 times GI50, qPCR relative to GAPDH
Protocol: as §2
as §2, with “analogues” for “each analogue”, “100 nM (light grey), 250 nM (grey), or 500 nM (black)” for “20 times the G150 value (Table 12)”, “24 h” for “4 hours”, “(MCL-1L), and” for “(MCL-1L),”, “(DNAJB1),” for “(DNAJB1), and cell cycle regulation (AURKA, PLK-1)”, “(—)” for “(−)”
as §3, §4, §5
(§6) Cells were treated with 1 or 1a-1j in media (McCoy's 5a (Life Technologies) supplemented with 10% FBS, 2 mM L-glutamine, and 100 U mL^−1 of penicillin and 100 μg mL^−1 of streptomycin 0.5% DMSO) for 4 h or 24 h. Untreated cells were considered were used as negative control. Total RNA was isolated using mirVana miRNA isolation kit (Life Technologies). […]

SF3A1 = assay: qPCR splicing analysis, SF3A1 intron retention; assay type: cell-based, human; conditions: HCT116, 4 h, 20 times GI50, qPCR relative to GAPDH
Protocol: as §2
as §2, with “analogues” for “each analogue”, “100 nM (light grey), 250 nM (grey), or 500 nM (black)” for “20 times the G150 value (Table 12)”, “24 h” for “4 hours”, “(MCL-1L), and” for “(MCL-1L),”, “(DNAJB1),” for “(DNAJB1), and cell cycle regulation (AURKA, PLK-1)”, “(—)” for “(−)”
as §3, §4, §5
as §6, with “Technologies). A 1 μg sample of RNA was subjected to DNAseI from a TURBO DNA free kit (Life Technologies). The cDNA was prepared by using SuperScript III reverse transcriptase kit (Life Technologies).” for “Technologies).”

SF3B2 = assay: qPCR splicing analysis, SF3B2 intron retention; assay type: cell-based, human; conditions: HCT116, 4 h, 20 times GI50, qPCR relative to GAPDH
Protocol: as §2
as §2, with “analogues” for “each analogue”, “100 nM (light grey), 250 nM (grey), or 500 nM (black)” for “20 times the G150 value (Table 12)”, “24 h” for “4 hours”, “(MCL-1L), and” for “(MCL-1L),”, “(DNAJB1),” for “(DNAJB1), and cell cycle regulation (AURKA, PLK-1)”, “(—)” for “(−)”
as §3, §4, §5
as §6, with “Technologies). A 1 μg sample of RNA was subjected to DNAseI from a TURBO DNA free kit (Life Technologies). The cDNA was prepared by using SuperScript III reverse transcriptase kit (Life Technologies).” for “Technologies).”

| Compound | human maximum tolerated dose (MTD) [1] | cell growth inhibitory activity compared to FD-895 [2] | effect on exon 3 inclusion in PLK-1 (PLK-1) | down regulating the expression of SF2 RNA (SF2) | splicing activity over the genes tested (HCT116 tumor cells) | GI50 ([2]; read-out: GI50 value) | effect on exon 4 skipping in AURKA (AURKA) | GI50 ([2]; read-out: GI50 value (text)) | DNAJB1 intron 2 retention (level of intron retention) (DNAJB1) | SF3A1 intron 6 retention (level of intron retention) (SF3A1) | SF3B2 intron retention (level of intron retention) (SF3B2) | fold less active (GI50) than 1 ([2]; HCT116 cell growth inhibition, compared to 1) |
| --- | --- | --- | --- | --- | --- | --- | --- | --- | --- | --- | --- | --- |
| CCC(OC)C(C)C1OC1C(O)C(C)/C=C/C=C(\C)C1OC(=O)CC(O)CCC(C)(O)C(OC(C)=O)/C=C/C1C (centres unmarked) [Analog 1, FD-895, reference compound] | 4 mg/m^2 | potent cell growth inhibitor | most potent effect | highest efficacy | altered the splicing of many of the genes tested | – | – | – | – | – | – | – |
| CC[C@H](OC)[C@@H](C)[C@H]1O[C@@H]1[C@H](O)[C@H](C)/C=C/C=C(\C)[C@H]1OC(=O)C[C@H](O)CC[C@@](C)(O)[C@@H](OC(C)=O)/C=C/[C@@H]1C [Analog 1, FD-895, reference compound] | – | – | – | – | – | 1.72 nM | – | – | – | – | – | – |
| CC[C@H](OC)[C@@H](C)[C@H]1O[C@@H]1[C@H](O)[C@H](C)/C=C/C=C(\C)[C@H]1OC(=O)C[C@@H](O)CC[C@@](C)(O)[C@@H](OC(C)=O)/C=C/[C@@H]1C [Analog 1a, 3S-FD-895] | – | compromised activity | – | – | – | 2.21 nM | most potent effect | < 10 nM | highest level of intron retention | more effective than 1 | – | – |
| CC[C@H](OC)[C@@H](C)[C@H]1O[C@@H]1[C@H](O)[C@H](C)/C=C/C=C(\C)[C@H]1OC(=O)C[C@H](O)CC[C@@](C)(O)[C@H](OC(C)=O)/C=C/[C@@H]1C [Analog 1b, 7R-FD-895] | – | compromised activity | – | – | loss of splicing activity when compared to 1 | 432 nM | – | – | – | – | improved efficacy | 250 fold |

— patent US12172988B2, “Anticancer and antifungal splice modulators” (priority 2021, dated 2024)
